ChEMBL document CHEMBL4602605, “Fluoroquinolones structural and medicinal developments (2013-2018): Where are we now?” (Bioorg Med Chem, 2019)
Values after ≈ are worked out from the molar mass of the structure shown.

Experiments:
Type in all cases: functional
[1] = tested on: Staphylococcus aureus; experiment: Antimicrobial activity against methicillin-susceptible Staphylococcus aureus ATCC 29213 incubated for 18 to 24 hrs by two-fold serial dilution method
[2] = tested on: Staphylococcus aureus; experiment: Antimicrobial activity against methicillin-resistant Staphylococcus aureus ATCC 33591 incubated for 18 to 24 hrs by two-fold serial dilution method
[3] = tested on: Mycobacterium tuberculosis; experiment: Antimicrobial activity against Mycobacterium tuberculosis H37Rv ATCC 27294 incubated for 7 days by microplate Alamar blue assay; conditions: H37Rv ATCC 27294, 168 h
[4] = tested on: Staphylococcus epidermidis; experiment: Antimicrobial activity against methicillin-susceptible Staphylococcus epidermidis ATCC 12228 incubated for 18 to 24 hrs by two-fold serial dilution method
[5] = tested on: Enterococcus faecium; experiment: Antimicrobial activity against Enterococcus faecium ATCC 700221 incubated for 18 to 24 hrs by two-fold serial dilution method
[6] = tested on: Escherichia coli; experiment: Antimicrobial activity against tolC deficient Escherichia coli KD65 by CLSI-based broth microdilution method
[7] = tested on: Staphylococcus aureus; experiment: Antimicrobial activity against Staphylococcus aureus ATCC 29213 by CLSI-based broth microdilution method
[8] = tested on: Pseudomonas aeruginosa; experiment: Antimicrobial activity against Pseudomonas aeruginosa PAO1 by CLSI-based broth microdilution method
[9] = Escherichia coli, KD65, read-out: MIC
[10] = Staphylococcus aureus, ATCC 29213, read-out: MIC

Row | SMILES | MIC [6, 9] [µg/mL] | MIC [7, 10] [µg/mL] | MIC [8] [µg/mL] | other results
1 | COc1c(N2CCN(C/C(C)=N/Nc3ccc(F)cc3)CC2)c(F)cc2c(=O)c(C(=O)O)cn(C3CC3)c12 | – | – | – | MIC [1]: 0.125 µg/mL (≈ 0.238 µM); MIC [2]: 0.125 µg/mL (≈ 0.238 µM); MIC [3]: 0.215 µM (≈ 0.113 µg/mL); MIC [4]: 0.125 µg/mL (≈ 0.238 µM); MIC [5]: 32 µg/mL (≈ 60.9 µM)
2 | O=C(O)c1cn(C2CC2)c2c3c(c(F)cc2c1=O)N1CCCC1CC(O)C3O (stereo unspecified) | < 0.06 | < 0.06 | 8 (≈ 20.6 µM) | –
3 | N[C@H]1CCN2c3c(F)cc4c(=O)c(C(=O)O)cn(C5CC5)c4c3CCC[C@H]12 | 0.004 (≈ 0.0108 µM) | 0.015 (≈ 0.0404 µM) | 0.29 (≈ 0.781 µM) | –
4 | N[C@@H]1C[C@@H]2CC=Cc3c(c(F)cc4c(=O)c(C(=O)O)cn(C5CC5)c34)N2C1 | 0.125 (≈ 0.338 µM) | 0.25 (≈ 0.677 µM) | 1 (≈ 2.71 µM) | –
5 | N[C@H]1C[C@H]2CCCc3c(c(F)cc4c(=O)c(C(=O)O)cn(C5CC5)c34)N2C1 | 0.015 (≈ 0.0404 µM) | 0.5 (≈ 1.35 µM) | 0.5 (≈ 1.35 µM) | –
6 | O=C(O)c1cn(C2CC2)c2c3c(c(F)cc2c1=O)N1CCCC1CC=C3 (stereo unspecified) | 0.03 (≈ 0.0847 µM) | 0.5 (≈ 1.41 µM) | 1 (≈ 2.82 µM) | –
7 | N[C@H]1CCN2c3c(F)cc4c(=O)c(C(=O)O)cn(C5CC5)c4c3C=CC[C@H]12 | 0.0022 (≈ 0.00596 µM) | 0.007 (≈ 0.0189 µM) | 0.16 (≈ 0.433 µM) | –
8 | N[C@@H]1CCN2c3c(F)cc4c(=O)c(C(=O)O)cn(C5CC5)c4c3C=CC[C@H]12 | 0.06 (≈ 0.162 µM) | 0.045 (≈ 0.122 µM) | 0.38 (≈ 1.03 µM) | –
9 | O=C(O)c1cn(C2CC2)c2c3c(c(F)cc2c1=O)N1CCCC1CNC3 (stereo unspecified) | 0.125 (≈ 0.35 µM) | 0.25 (≈ 0.7 µM) | 16 (≈ 44.8 µM) | –
10 | COc1c(N2CCN(C/C(C)=N/Nc3ccc(F)c(Cl)c3)CC2)c(F)cc2c(=O)c(C(=O)O)cn(C3CC3)c12 | – | – | – | MIC [1]: 0.125 µg/mL (≈ 0.223 µM); MIC [2]: 0.125 µg/mL (≈ 0.223 µM); MIC [3]: 0.396 µM (≈ 0.222 µg/mL); MIC [4]: 0.125 µg/mL (≈ 0.223 µM); MIC [5]: 64 µg/mL (≈ 114 µM)
11 | COc1c(N2CCN(C/C(C)=N/Nc3ccncc3)CC2)c(F)cc2c(=O)c(C(=O)O)cn(C3CC3)c12 | – | – | – | MIC [1]: 2 µg/mL (≈ 3.93 µM); MIC [2]: 2 µg/mL (≈ 3.93 µM); MIC [3]: 1.78 µM (≈ 0.905 µg/mL); MIC [4]: 2 µg/mL (≈ 3.93 µM); MIC [5]: > 64 µg/mL
12 | N[C@@H]1CCN2c3c(F)cc4c(=O)c(C(=O)O)cn(C5CC5)c4c3C=NC[C@H]12 | 0.125 (≈ 0.337 µM) | 4 (≈ 10.8 µM) | 1 (≈ 2.7 µM) | –
13 | N[C@@H]1C[C@H]2CC=Cc3c(c(F)cc4c(=O)c(C(=O)O)cn(C5CC5)c34)N2C1 | 2 (≈ 5.41 µM) | 2 (≈ 5.41 µM) | 32 (≈ 86.6 µM) | –
14 | N[C@@H]1CCN2c3c(F)cc4c(=O)c(C(=O)O)cn(C5CC5)c4c3CCC[C@H]12 | 0.004 (≈ 0.0108 µM) | 0.03 (≈ 0.0808 µM) | 0.125 (≈ 0.337 µM) | –
15 | N[C@H]1C[C@@H]2CC=Cc3c(c(F)cc4c(=O)c(C(=O)O)cn(C5CC5)c34)N2C1 | 0.008 (≈ 0.0217 µM) | ≤ 0.06 | 0.22 (≈ 0.596 µM) | –
16 | CO/N=C1/Cc2c(c(F)cc3c(=O)c(C(=O)O)cn(C4CC4)c23)N2CCCC2C1 (stereo unspecified) | 0.25 (≈ 0.626 µM) | 1 (≈ 2.5 µM) | 64 (≈ 160 µM) | –
17 | N[C@H]1CCN2c3c(F)cc4c(=O)c(C(=O)O)cn(C5CC5)c4c3C=NC[C@H]12 | ≤ 0.06 | 2 (≈ 5.4 µM) | 0.5 (≈ 1.35 µM) | –
18 | O=C(O)c1cn(C2CC2)c2c3c(c(F)cc2c1=O)N1CCCC1CCC3 (stereo unspecified) | 0.18 (≈ 0.505 µM) | 0.1 (≈ 0.281 µM) | 17 (≈ 47.7 µM) | –
19 | C/N=C1/Cc2c(c(F)cc3c(=O)c(C(=O)O)cn(C4CC4)c23)N2CCCC2C1 (stereo unspecified) | 0.06 (≈ 0.156 µM) | 0.25 (≈ 0.652 µM) | > 32 | –
20 | N[C@@H]1CCN2c3c(F)cc4c(=O)c(C(=O)O)cn(C5CC5)c4c3CNC[C@H]12 | 0.25 (≈ 0.671 µM) | 1 (≈ 2.69 µM) | 16 (≈ 43 µM) | –
21 | N[C@H]1CCN2c3c(F)cc4c(=O)c(C(=O)O)cn(C5CC5)c4c3COC[C@H]12 | 0.002 (≈ 0.00536 µM) | 0.0082 (≈ 0.022 µM) | 0.25 (≈ 0.67 µM) | –
22 | N[C@H]1C[C@H]2CC=Cc3c(c(F)cc4c(=O)c(C(=O)O)cn(C5CC5)c34)N2C1 | 16 (≈ 43.3 µM) | 8 (≈ 21.7 µM) | 64 (≈ 173 µM) | –
23 | N[C@H]1C[C@@H]2CCCc3c(c(F)cc4c(=O)c(C(=O)O)cn(C5CC5)c34)N2C1 | 0.006 (≈ 0.0162 µM) | 0.038 (≈ 0.102 µM) | 0.45 (≈ 1.21 µM) | –
24 | N[C@H]1C[C@H]2COCc3c(c(F)cc4c(=O)c(C(=O)O)cn(C5CC5)c34)N2C1 | 0.034 (≈ 0.0911 µM) | 0.125 (≈ 0.335 µM) | 0.38 (≈ 1.02 µM) | –
25 | O=C1CC2CCCN2c2c(F)cc3c(=O)c(C(=O)O)cn(C4CC4)c3c2N1 (stereo unspecified) | 4 (≈ 10.8 µM) | > 64 | > 64 | –
26 | O=C(O)c1cn(C2CC2)c2c3c(c(F)cc2c1=O)N1CCCC1C[S+]([O-])C3 (stereo in doubt; 440) | – | – | > 16 | MIC [6]: 16 µg/mL (≈ 41 µM); MIC [7]: 1 µg/mL (≈ 2.56 µM)
27 | O=C(O)c1cn(C2CC2)c2c3c(c(F)cc2c1=O)N1CCCC1C[S+]([O-])C3 (stereo in doubt; 441) | – | – | – | MIC [6]: 1 µg/mL (≈ 2.56 µM); MIC [7]: 4 µg/mL (≈ 10.2 µM)
